The test system of one data set is human MDR1 P-gp. Kind of data set: Assay D: efflux in MDCK cells transfected with the human MDR1 gene. The following applies: dog; MDCK-MDR1 monolayers, pH 7.4, 37° C.; read-out: MDCK efflux ratio (BA/AB). The format is in vitro ADME, canine. The protocol:
The MDCK assay provides information on the potential of a compound to pass the blood brain barrier. Permeability measurements across polarized, confluent MDCK-MDR1 cell monolayers grown on permeable filter supports are used as an in vitro absorption model: apparent permeability coefficients (PE) of the compounds across the MDCK-MDR1 cell monolayers are measured (pH 7.4, 37° C.) in apical-to-basal (AB) and basal-to-apical (BA) transport direction. The AB permeability (PEAB) represents drug absorption from the blood into the brain and the BA permeability (PEBA) drug efflux from the brain back into the blood via both, passive permeability as well as active transport mechanisms mediated by efflux and uptake transporters that are expressed on the MDCK-MDR1 cells, predominantly by the overexpressed human MDR1 P-gp. Identical or similar permeabilities in both transport directions indicate passive permeation, vectorial permeability points to additional active transport mechanisms. Higher PEBA than PEAB (PEBA/PEAB>5) indicates the involvement of active efflux mediated by MDR1 P-gp, which might compromises the goal to achieve sufficient brain exposure. Therefore this assay provides valuable support for selection of compounds applicable for further in vivo testing. High permeability not limited by efflux at the blood brain barrier is a favourable characteristic for compounds that are to be used for drugs acting primarily in the CNS
D. Assessment of Efflux in Madin-Darby Canine Kidney (MDCK) Cells Transfected with the Human MDR1 Gene
Apparent permeability coefficients (PE) of the compounds across the MDCK-MDR1 cell monolayers are measured (pH 7.4, 37° C.) in apical-to-basal (AB) and basal-to-apical (BA) transport direction. AB permeability (PEAB) represents drug absorption from the blood into the brain and BA permeability (PEBA) drug efflux from the brain back into the blood via both passive permeability as well as active transport mechanisms mediated by efflux and uptake transporters that are expressed on the MDCK-MDR1 cells, predominantly by the overexpressed human MDR1 P-gp. The compounds are assigned to permeability/absorption classes by comparison of the AB permeabilities with the AB permeabilities of reference compounds with known in vitro permeability and oral absorption in the human. Identical or similar permeabilities in both transport directions indicate passive permeation, vectorial permeability points to additional active transport mechanisms. Higher PEBA than PEAB indicates the involvement of active efflux mediated by MDR1 P-gp. Active transport is concentration-dependently saturable.
MDCK-MDR1 cells (1-2×10e5 cells/1 cm2 area) are seeded on filter inserts (Costar transwell polycarbonate or PET filters, 0.4 μm pore size) and cultured (DMEM) for 7 days. Subsequently, the MDR1 expression is boosted by culturing the cells with 5 mM sodium butyrate in full medium for 2 days. Compounds are dissolved in appropriate solvent (like DMSO, 1-20 mM stock solutions). Stock solutions are diluted with HTP-4 buffer (128.13 mM NaCl, 5.36 mM KCl, 1 mM MgSO4, 1.8 mM CaCl2, 4.17 mM NaHCO3, 1.19 mM Na2HPO4×7H2O, 0.41 mM NaH2PO4×H2O, 15 mM HEPES, 20 mM glucose, 0.25% BSA, pH 7.4) to prepare the transport solutions (0.1-300 μM compound, final DMSO<=0.5%). The transport solution (TL) is applied to the apical or basolateral donor side for measuring A-B or B-A permeability (3 filter replicates), respectively. The receiver side contains the same buffer as the donor side. Samples are collected at the start and end of experiment from the donor and at various time intervals for up to 2 hours also from the receiver side for concentration measurement by HPLC-MS/MS or scintillation counting. Sampled receiver volumes are replaced with fresh receiver solution.

In data set [1] the target is T1, OX1R (Homo sapiens, UniProt O43613).
T1 sequence (O43613 1-425): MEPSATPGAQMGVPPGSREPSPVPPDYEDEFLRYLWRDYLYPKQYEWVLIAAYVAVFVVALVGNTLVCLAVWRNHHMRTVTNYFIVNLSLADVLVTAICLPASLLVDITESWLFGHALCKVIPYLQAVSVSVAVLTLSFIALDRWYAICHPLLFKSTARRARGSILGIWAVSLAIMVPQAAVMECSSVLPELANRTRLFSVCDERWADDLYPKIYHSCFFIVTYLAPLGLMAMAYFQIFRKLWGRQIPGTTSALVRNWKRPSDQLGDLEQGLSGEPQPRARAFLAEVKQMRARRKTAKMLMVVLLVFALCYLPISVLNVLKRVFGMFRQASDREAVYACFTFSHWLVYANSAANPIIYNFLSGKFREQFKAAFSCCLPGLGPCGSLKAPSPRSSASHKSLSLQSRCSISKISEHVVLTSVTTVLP
As to conditions: Table 3 of WO2016/034882; cited from earlier work.

For data set [2], the target named is T2, OX2R (Homo sapiens, UniProt O43614).
T2 sequence (O43614 1-444): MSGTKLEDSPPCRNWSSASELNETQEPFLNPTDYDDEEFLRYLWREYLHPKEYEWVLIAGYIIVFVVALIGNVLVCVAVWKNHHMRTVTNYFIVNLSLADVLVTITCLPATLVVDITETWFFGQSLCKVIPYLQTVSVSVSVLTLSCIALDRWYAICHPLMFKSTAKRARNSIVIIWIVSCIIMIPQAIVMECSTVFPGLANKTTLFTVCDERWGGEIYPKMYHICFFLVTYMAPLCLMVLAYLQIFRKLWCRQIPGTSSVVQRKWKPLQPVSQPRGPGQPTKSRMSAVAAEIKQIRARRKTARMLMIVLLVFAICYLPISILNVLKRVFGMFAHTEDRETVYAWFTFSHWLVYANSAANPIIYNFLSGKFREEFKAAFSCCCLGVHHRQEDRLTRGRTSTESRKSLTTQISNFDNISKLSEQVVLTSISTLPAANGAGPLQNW
As to conditions: Table 3 of WO2016/034882; cited from earlier work.

Data set [3] is described as follows: Assay C: metabolic stability in human liver microsomes (Human MST). Format: in vitro ADME. As to conditions: pooled human liver microsomes, pH 7.6, 1 μM compound, 37° C., read-out: Human MST t1/2. An excerpt:
Stability in human liver microsomes refers to the susceptibility of compounds to biotransformation in the context of selecting and/or designing drugs with favorable pharmacokinetic properties. The primary site of metabolism for many drugs is the liver. Human liver microsomes contain the cytochrome P450s (CYPs), and thus represent a model system for studying drug metabolization in vitro. Enhanced stability in human liver microsomes is associated with several advantages, including increased bioavailability and longer half-life, which can enable lower and less frequent dosing of patients. Thus, enhanced stability in human liver microsomes is a favorable characteristic for compounds that are to be used for drugs.
C. Assessment of Metabolic Stability in Human Liver Microsomes (Human MST)
The metabolic stability of the compounds according to the invention may be investigated as follows:
The metabolic degradation of the test compound is assayed at 37° C. with pooled human liver microsomes. The final incubation volume of 100 μL per time point contains TRIS buffer pH 7.6 at room temperature (0.1 M), MgCl2 (5 mM), microsomal protein (1 mg/mL) and the test compound at a final concentration of 1 μM. Following a short pre-incubation period at 37° C., the reactions are initiated by addition of beta-nicotinamide adenine dinucleotide phosphate, reduced form (NADPH, 1 mM), and terminated by transferring an aliquot into solvent after different time points. After centrifugation (10000 g, 5 min), an aliquot of the supernatant is assayed by LC-MS/MS for the amount of parent compound. The half-life (t1/2) is determined by the slope of the semi-logarithmic plot of the concentration-time profile.
In general terms: Liver microsomes are a subcellular fraction often used to study metabolism.

The target of another data set is T3, human orexin 2 receptor (Homo sapiens, UniProt O43614).
T3 construct: stably expressing the full-length human orexin 2 receptor and the aequorin photoprotein; expressed in transfected cells; host or cells: CHO-K1 (CHO-K1/hOx2), co-expressing aequorin
T3 sequence (O43614 1-444): T2 sequence (O43614 1-444)
Kind of data set: Assay B: OX2R IP1 (in vitro OX2R potency). Format: cell-based. The following applies: 0.5 nM Orexin A concentration. An excerpt:
Activation of the orexin receptors expressed in cell lines results in an increase in intracellular IP3 concentration. IP1, a downstream metabolite of IP3, accumulates in cells following receptor activation and is stable in the presence of LiCl. Using Homogeneous Time-Resolved Fluorescence technology with Lumi4-Tb cryptate (commercially available from Cisbio Bioassay.) and a suitable fluorescence plate reader. […] Chem. Genomics 2009, 3, 22-32. This technique is used to characterize pharmacological modification of the orexin receptors.
B. In Vitro Testing of OX2R Potency: OX2R IP1
IP1 measurements are performed in CHO-K1 cells stably expressing the full-length human orexin 2 receptor and the aequorin photoprotein. Cells are cultivated in Ham's nutrient mixture F12 medium with 10% fetal calf serum, in a 37° C., 95% humidity and 5% CO2 incubator. The CHO-K1/hOx2 cell mass is expanded to larger cell numbers. The cells are obtained as frozen cells in cryo-vials and stored until use at −150° C. The viability of the cells after thawing is >90%. In preparation for the assay, 24 hours before the assay, the cells are thawed at 37° C. and immediately diluted with cell culture medium. After centrifugation, the cell pellet is resuspended in medium and then distributed into the assay plates with a density of 5000 cells/25 μL per well. The plates are incubated for one hour at room temperature to reduce edge effects before they are incubated for 24 hours at 37° C./5% CO2. Compounds are prepared by a 8-point serial dilution in DMSO and a final dilution step into assay buffer (HBSS with 20 mM HEPES, 0.1% BSA and 50 mM LiCl, pH 7.4) to ensure a final DMSO concentration of 1% in the assay. On the day of the assay, cells in the plate are washed twice with 60 μL assay buffer (20 μL buffer remained in the wells after washing), followed by adding 5 μL per well of compounds diluted in assay buffer. After 15 minutes of incubation at room temperature 5 μL per well of Orexin A peptide (final concentration: 0.5 nM) dissolved in assay buffer is added to the assay plate. The assay plate is incubated for 60 minutes at 37° C. Then 5 μl per well of Anti-IP1-Cryptate Tb solution and 5 μl per well of IP1-d2 dilution are added to all well of the plate and the plate is incubated for a further 60 minutes light protected at room temperature. The emission at 615 nm and 665 nm (Excitation wavelength: 320 nm) are measured using an EnVision reader (PerkinElmer). The ratio between the emission at 665 nm and 615 is calculated by the reader.
8-point four parametric non-linear curve fitting and determination of IC50 values and Hill slopes is performed using a regular analysis software e.g. AssayExplorer (Accelrys). In order to establish an agonist concentration independent parameter, Kb values are calculated using the following equation: IC50/((2+(A/EC50)n)^1/n−1) (with A=concentration agonist, EC50=EC50 agonist, n=Hill slope agonist) (see P. Leff, I. G. Dougall, Trends Pharmacol. Sci. 1993, 14(4), 110-112).
Kb values from Assay A (OX1R) and Assay B (OX2R) can then provide a selectivity ratio which is independent of the agonist (Orexin A) concentration.

Data set [4] addresses T2, OX2R. As to conditions: cited from earlier work.
Data set [5] deals with T1, OX1R. As to conditions: cited from earlier work.
The mark [6] stands for this setting: as described in WO03/051872 (page 16-18).
Where [7] appears, read: corresponds to pKb described in WO03/051872.

`CC[C@@H](CNc1ncc(C(F)(F)F)cn1)N(C)C(=O)c1nc(C)ccc1-n1cccn1` [Ex 90 in WO2016/034882]: the efflux ratio with human MDR1 P-gp is less than 3. For the same compound, the “OX2R IC50/OX1R IC50” value at OX1R [1] is “Table 3: >526”. The “OX2R pIC50” value at OX2R [2] was less than 6.0.
Consider `CCN(C(=O)c1cccc(Cl)c1-n1nccn1)[C@@H](C)CNc1ncc(C(F)(F)F)cn1` [Example 3], for which, in data set [3], the half-life at 1 μM worked out at 1.4 h. For the same compound, the Kb on human orexin 2 receptor was 0.00627 µM.
Regarding `Cc1nc(C(=O)N(C)CCNc2ncc(Br)cn2)c(-c2ccc(F)cc2)s1` [Example 6 in WO03/051872], the efflux ratio with human MDR1 P-gp worked out at 0.8. The “OX2R pKb” value at OX2R [4] (setting [6]) is listed as less than 6.6 to 7.4. Also, at OX2R [4] (setting [7]), the “OX2R Kb” value is listed as more than 250 to 40 nM. For the same compound, on OX1R [5] (setting [6]), the “OX1R pKb” value is given as 6.4 to 7.4. Besides, the “OX1R Kb” value at OX1R [5] (setting [7]) is on record as 400 to 40 nM.
For `CCN(C(=O)c1cc(F)cc(F)c1-n1nccn1)[C@@H](C)CNc1ncc(C(F)(F)F)cn1` [Example 6], the half-life at 1 μM in data set [3] was more than 2 h. At human orexin 2 receptor, the Kb was 0.0531 µM.

The values are drawn from US9884854B2, “N-[(pyrimidinylamino)propanyl]-and N[(pyrazinylamino)proppanyl]arylcarboxamides” (Boehringer Ingelheim International GmbH, priority 2016, dated 2018).
